This passage reports Ep/2 results from US20240424148A1, “IN-VIVO PROXIMITY-BASED LABELING SYSTEMS AND APPLICATIONS THEREOF” (THE TRUSTEES OF PRINCETON UNIVERSITY, priority 2021, published 2024).

A short description of this series: Redox potentials (electrochemistry). The series is classed as physicochemical. From the text:
This reduced species is poised to undergo single electron transfer (SET) to the aryl azide, 1 (Ep/2=−0.61 V vs Ag/AgCl), thereby regenerating the catalyst (3) (FIG. 15).
Furthermore, electrochemical reduction of the Sn-chlorin e6 catalyst generated a species with significant spectral overlap with the transient-absorption signal of the photoexcited catalyst in the presence of NADH, supporting the generation of the reduced ground state catalyst.

Molecules are shown by their SMILES.

In turn, `[N-]=[N+]=Nc1ccc(C(=O)O)cc1` [compound 1, 4-azidobenzoic acid] had an Ep/2 of −0.61 V vs Ag/AgCl.
